Measurements: PubChem BioAssay (NCI)
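Step 1: Grow cells in 96-well plates. Step 2: Expose to compound for 48 hours at 5 concentrations. Step 3: Interpolate endpoints linearly; if unreached, use highest concentration. GI50 marks 50% less growth. At the TGI there is no net growth.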

What was measured:
Experiment in all cases: inhibition of tumour cell growth, NCI panel, 48 h
NCI/ADR-RES ovarian = system: NCI/ADR-RES ovarian
A498 renal = system: A498 renal
IGROV1 ovarian = system: IGROV1 ovarian
UACC-62 melanoma = system: UACC-62 melanoma
UACC-257 melanoma = system: UACC-257 melanoma
HL-60(TB) leukemia = system: HL-60(TB) leukemia
SN12C renal = system: SN12C renal
MOLT-4 leukemia = system: MOLT-4 leukemia
CAKI-1 renal = system: CAKI-1 renal
MALME-3M melanoma = system: MALME-3M melanoma
NCI-H226 lung = system: NCI-H226 lung
NCI-H460 lung = system: NCI-H460 lung
SNB-75 CNS = system: SNB-75 CNS
HT29 colon = system: HT29 colon
NCI-H23 lung = system: NCI-H23 lung
MDA-MB-231 breast = system: MDA-MB-231 breast
T-47D breast = system: T-47D breast
SF-295 CNS = system: SF-295 CNS
SNB-19 CNS = system: SNB-19 CNS
HCT-15 colon = system: HCT-15 colon
OVCAR-5 ovarian = system: OVCAR-5 ovarian
HCC-2998 colon = system: HCC-2998 colon
CCRF-CEM leukemia = system: CCRF-CEM leukemia
SF-539 CNS = system: SF-539 CNS
PC-3 prostate = system: PC-3 prostate
UO-31 renal = system: UO-31 renal
SW-620 colon = system: SW-620 colon
MDA-MB-435 = system: MDA-MB-435
COLO 205 colon = system: COLO 205 colon
SR leukemia = system: SR leukemia
MCF7 breast = system: MCF7 breast
HOP-62 NSCLC = system: HOP-62 NSCLC
786-0 renal = system: 786-0 renal
KM12 colon = system: KM12 colon
DU-145 prostate = system: DU-145 prostate
HS 578T breast = system: HS 578T breast
BT-549 breast = system: BT-549 breast
OVCAR-3 ovarian = system: OVCAR-3 ovarian
HCT-116 colon = system: HCT-116 colon
SK-MEL-5 melanoma = system: SK-MEL-5 melanoma
SK-MEL-2 melanoma = system: SK-MEL-2 melanoma
RXF 393 renal = system: RXF 393 renal
M14 melanoma = system: M14 melanoma
HOP-92 NSCLC = system: HOP-92 NSCLC
SK-MEL-28 melanoma = system: SK-MEL-28 melanoma
SF-268 CNS = system: SF-268 CNS
K-562 leukemia = system: K-562 leukemia
U251 CNS = system: U251 CNS
OVCAR-4 ovarian = system: OVCAR-4 ovarian
ACHN renal = system: ACHN renal
RPMI-8226 leukemia = system: RPMI-8226 leukemia
A549 NSCLC = system: A549 NSCLC
LOX IMVI melanoma = system: LOX IMVI melanoma
SK-OV-3 ovarian = system: SK-OV-3 ovarian
NCI-H522 lung = system: NCI-H522 lung
TK-10 renal = system: TK-10 renal
OVCAR-8 ovarian = system: OVCAR-8 ovarian

What does the source list for Cn1cc(C2=C(c3c4n(c5ccccc35)CCC(CN)C4)C(=O)NC2=O)c2ccccc21 (centres undefined)?
GI50 (NCI/ADR-RES ovarian): 14.9 µM; TGI (NCI/ADR-RES ovarian): 25 µM; GI50 (A498 renal): 4.02 µM; TGI (A498 renal): 7.6 µM; GI50 (IGROV1 ovarian): 4 µM; TGI (IGROV1 ovarian): 8 µM; GI50 (UACC-62 melanoma): 3 µM; TGI (UACC-62 melanoma): 6.21 µM; GI50 (UACC-257 melanoma): 3.23 µM; TGI (UACC-257 melanoma): 6.68 µM; GI50 (HL-60(TB) leukemia): 4.13 µM; TGI (HL-60(TB) leukemia): 8.77 µM; GI50 (SN12C renal): 2.72 µM; TGI (SN12C renal): 6.56 µM; GI50 (MOLT-4 leukemia): 2.19 µM; TGI (MOLT-4 leukemia): 6.73 µM; GI50 (CAKI-1 renal): 3.91 µM; TGI (CAKI-1 renal): 8.75 µM; GI50 (MALME-3M melanoma): 2.75 µM; TGI (MALME-3M melanoma): 6.07 µM; GI50 (NCI-H226 lung): 3.34 µM; TGI (NCI-H226 lung): 11.1 µM; GI50 (NCI-H460 lung): 3.32 µM; TGI (NCI-H460 lung): 7.05 µM; GI50 (SNB-75 CNS): 0.594 µM; TGI (SNB-75 CNS): 4.05 µM; GI50 (HT29 colon): 2.67 µM; TGI (HT29 colon): 5.95 µM; GI50 (NCI-H23 lung): 3.6 µM; TGI (NCI-H23 lung): 7.74 µM; GI50 (MDA-MB-231 breast): 2.53 µM; TGI (MDA-MB-231 breast): 6.05 µM; GI50 (T-47D breast): 3.17 µM; TGI (T-47D breast): 7.49 µM; GI50 (SF-295 CNS): 2.31 µM; TGI (SF-295 CNS): 6.09 µM; GI50 (SNB-19 CNS): 3.96 µM; TGI (SNB-19 CNS): 9.26 µM; GI50 (HCT-15 colon): 4.02 µM; TGI (HCT-15 colon): 8.65 µM; GI50 (OVCAR-5 ovarian): 2.94 µM; TGI (OVCAR-5 ovarian): 7.15 µM; GI50 (HCC-2998 colon): 3.49 µM; TGI (HCC-2998 colon): 7.14 µM; GI50 (CCRF-CEM leukemia): 2.43 µM; TGI (CCRF-CEM leukemia): 7.23 µM; GI50 (SF-539 CNS): 3.63 µM; TGI (SF-539 CNS): 7.16 µM; GI50 (PC-3 prostate): 2.77 µM; TGI (PC-3 prostate): 6.59 µM; GI50 (UO-31 renal): 3.25 µM; TGI (UO-31 renal): 6.58 µM; GI50 (SW-620 colon): 2.96 µM; TGI (SW-620 colon): 6.69 µM; GI50 (MDA-MB-435): 2.52 µM; TGI (MDA-MB-435): 5.97 µM; GI50 (COLO 205 colon): 1.63 µM; TGI (COLO 205 colon): 5.15 µM; GI50 (SR leukemia): 2.17 µM; TGI (SR leukemia): 7.81 µM; GI50 (MCF7 breast): 2.06 µM; TGI (MCF7 breast): 6.5 µM; GI50 (HOP-62 NSCLC): 3.12 µM; TGI (HOP-62 NSCLC): 6.62 µM; GI50 (786-0 renal): 4.25 µM; TGI (786-0 renal): 8.38 µM; GI50 (KM12 colon): 3.42 µM; TGI (KM12 colon): 6.92 µM; GI50 (DU-145 prostate): 3.63 µM; TGI (DU-145 prostate): 7.02 µM; GI50 (HS 578T breast): 1.55 µM; TGI (HS 578T breast): 8.2 µM; GI50 (BT-549 breast): 4.06 µM; TGI (BT-549 breast): 7.75 µM; GI50 (OVCAR-3 ovarian): 3.58 µM; TGI (OVCAR-3 ovarian): 7.63 µM; GI50 (HCT-116 colon): 2 µM; TGI (HCT-116 colon): 5.77 µM; GI50 (SK-MEL-5 melanoma): 3.99 µM; TGI (SK-MEL-5 melanoma): 7.82 µM; GI50 (SK-MEL-2 melanoma): 4.15 µM; TGI (SK-MEL-2 melanoma): 7.92 µM; GI50 (RXF 393 renal): 3.01 µM; TGI (RXF 393 renal): 6.47 µM; GI50 (M14 melanoma): 3.46 µM; TGI (M14 melanoma): 7.58 µM; GI50 (HOP-92 NSCLC): 5.25 µM; TGI (HOP-92 NSCLC): 12.3 µM; GI50 (SK-MEL-28 melanoma): 3.82 µM; TGI (SK-MEL-28 melanoma): 7.31 µM; GI50 (SF-268 CNS): 3.95 µM; TGI (SF-268 CNS): 7.65 µM; GI50 (K-562 leukemia): 3.54 µM; TGI (K-562 leukemia): 8.27 µM; GI50 (U251 CNS): 2.74 µM; TGI (U251 CNS): 6 µM; GI50 (OVCAR-4 ovarian): 2.5 µM; TGI (OVCAR-4 ovarian): 7.42 µM; GI50 (ACHN renal): 3.2 µM; TGI (ACHN renal): 7.02 µM; GI50 (RPMI-8226 leukemia): 3.93 µM; TGI (RPMI-8226 leukemia): 9.61 µM; GI50 (A549 NSCLC): 3.05 µM; TGI (A549 NSCLC): 7.83 µM; GI50 (LOX IMVI melanoma): 3.83 µM; TGI (LOX IMVI melanoma): 7.53 µM; GI50 (SK-OV-3 ovarian): 4.11 µM; TGI (SK-OV-3 ovarian): 9.16 µM; GI50 (NCI-H522 lung): 3.84 µM; TGI (NCI-H522 lung): 7.46 µM; GI50 (TK-10 renal): 2.62 µM; TGI (TK-10 renal): 5.58 µM; GI50 (OVCAR-8 ovarian): 3.77 µM; TGI (OVCAR-8 ovarian): 8.92 µM
